Assay results as given in ChEMBL document CHEMBL1156829 (Proc Natl Acad Sci U S A, 2008).

Columns and labels:
[1] = NOVARTIS: Cytotoxicity against human hepatocellular carcinoma cell line (Huh7); assay type: toxicity, cell-based, Huh-7; conditions: Huh7 cells (hepatocellular carcinoma cell line)
Plasmodium falciparum [2] = assay: NOVARTIS: Inhibition of Plasmodium falciparum W2 (drug-resistant) proliferation in erythrocyte-based infection assay; assay type: functional, organism-based; conditions: Plasmodium falciparum, W2; read-out: EC50
Plasmodium falciparum [3] = assay: NOVARTIS: Inhibition of Plasmodium falciparum 3D7 (drug-susceptible) proliferation in erythrocyte-based infection assay; assay type: functional, organism-based; conditions: Plasmodium falciparum, 3D7

Compound | CC50 [1] | EC50 (Plasmodium falciparum [2]) | EC50 (Plasmodium falciparum [3])
CC(=O)NCCc1ccc(O)cc1 | > 10 µM | < 13.7 nM | > 1670 nM
CCSC(Cl)=C(NC(=O)c1ccccc1)[P+](c1ccccc1)(c1ccccc1)c1ccccc1.[O-][Cl+3]([O-])([O-])[O-] | 32.2 µM | 45.5 nM | 123 nM
CCC1CN2CCc3cc(OC)c(OC)cc3C2CC1CC1NCCc2cc(OC)c(OC)cc21 (stereo unspecified) | 23.7 µM | 36 nM | 35.7 nM
CCCCCCc1cc(O)c2c(c1)OC(C)(C)C1=C2CCN(C)C1 | 20.6 µM | 31.3 nM | 48.4 nM
CCN(CC)CCCC(C)N=c1cc(C=Cc2ccccc2Cl)[nH]c2cc(Cl)ccc12 (stereo unspecified) | 18.8 µM | 25.7 nM | 50.7 nM
Cc1cc(C)c2c(c1)c(-c1ccccc1)c(-c1ccccc1)n2CC(O)Cn1cnc(-c2ccccc2)c1-c1ccccc1 (stereo unspecified) | > 100 µM | 155 nM | 1350 nM
CC(C)C(=O)NC(Nc1ccc([N+](=O)[O-])cc1)C(Cl)(Cl)Cl (stereo unspecified) | 68.3 µM | 104 nM | 195 nM
CC(=O)O[C@H]1C(=O)[C@@]2(C)C([C@H](OC(=O)c3ccccc3)[C@]3(O)C[C@H](OC(=O)[C@@H](O)[C@@H](NC(=O)c4ccccc4)c4ccccc4)C(C)=C1C3(C)C)[C@]1(OC(C)=O)CO[C@@H]1C[C@@H]2O (stereo partly specified) | > 100 µM | 152 nM | 658 nM
Cc1ncc([N+](=O)[O-])n1CCOC(=O)NC(Nc1ccc(Br)cc1)C(Cl)(Cl)Cl (stereo unspecified) | > 100 µM | 152 nM | 229 nM
O=C(Nc1cc(C(F)(F)F)ccc1N1CCOCC1)C(Cl)(Cl)Cl | 74.8 µM | 116 nM | 376 nM
COc1ccc(C=C2SC(=N)N(c3ccccc3OC)C2=O)cc1 | 62.9 µM | 87.1 nM | 163 nM
COC(=O)C1=C(C)NC2=C(C(=O)CC(c3ccc(Cl)cc3)C2)C1c1ccccc1 (stereo unspecified) | > 100 µM | 152 nM | 342 nM
Cn1c(C(=O)c2cccc3ccccc23)nc2ccccc21 | 21.5 µM | 32.6 nM | 6.92 nM
COCCOC(=O)NCc1ccc(Nc2c(C(C)(C)C)nc3cnccn23)cc1 | > 10 µM | 15.5 nM | 102 nM
Cc1cc(Cl)c(S(=O)(=O)N2CCSCC2)cc1OCC(=O)NC1CCCCC1 | > 100 µM | 153 nM | 186 nM
C=CCNC(=S)N1CCc2c([nH]c3ccccc23)C1C(F)(F)F (stereo unspecified) | 70.7 µM | 108 nM | 208 nM
COc1ccc(OC)c(-c2ccc(O)c(CN3CCCC(C)C3)c2)c1 (stereo unspecified) | 61 µM | 94.5 nM | 131 nM
CCOc1cc(C2CC(=O)NC3=C2C(=O)CC(c2ccc(OC)c(OC)c2)C3)ccc1O (stereo unspecified) | > 100 µM | 155 nM | 781 nM
CCN(CC)CCNc1ccnc2cc3ccccc3cc12 | 20.3 µM | 31.3 nM | 28.6 nM
Cc1ccc(C)c(NC(=O)C2CCCN(c3nnc(N4CCCC4=O)s3)C2)c1 (stereo unspecified) | > 100 µM | 154 nM | > 5750 nM
O=C(NCCCCNc1ccnc2cc(Cl)ccc12)c1cccc(C(F)(F)F)c1 | > 10 µM | < 13.8 nM | 171 nM
O=C1C(N2CCCCC2)=C(N2CCCCC2)C(=O)c2ccccc21 | 24.9 µM | 34.1 nM | 137 nM
CCOc1cc(C2CC(=O)NC3=C2C(=O)CC(C)(C)C3)ccc1OC(C)C (stereo unspecified) | > 100 µM | 136 nM | 284 nM

Compound | CC50 [1] | EC50 (Plasmodium falciparum [2]) | EC50 (Plasmodium falciparum [3])
CCN1C(=O)N(CC)C(NNC(N)=S)C1NNC(N)=S (stereo unspecified) | > 100 µM | 152 nM | 123 nM
CSc1nc2nc(C)c(Cc3cccc(F)c3)c(C)n2n1 | > 100 µM | 152 nM | 298 nM
Cc1c(C(=O)NCCN2CCCC2)cnn1-c1ncc2c(n1)-c1ccccc1SC2 | > 10 µM | < 14.3 nM | 525 nM
CCc1cccc(NC(=O)N2CCN(C(=O)c3nc(-c4ccccc4)nc(C)c3C(=O)OC(C)C)CC2C)c1 (stereo unspecified) | > 10 µM | < 14.1 nM | 719 nM
C[n+]1c(/C=C\c2ccc(F)cc2)ccc2ccccc21 | > 10 µM | 14.2 nM | 274 nM
Fc1ccc(C2(CCCSc3nnc4c(n3)[nH]c3ccccc34)OCCO2)cc1 | > 100 µM | 141 nM | 400 nM
CC(c1nc2ccc(Cl)cc2c(=O)n1C)N1CCN(S(=O)(=O)c2cccc3ccccc23)CC1 (stereo unspecified) | > 100 µM | 140 nM | 147 nM
O=C1N(Cc2cc3ccccc3s2)CC2CN(Cc3ccc(F)c(F)c3)CCN12 (stereo unspecified) | > 10 µM | < 13.9 nM | 239 nM
COc1ccccc1N1CCN(Cc2cc(C)c(C)cc2O)CC1 | 58 µM | 80.5 nM | 383 nM
C=C[C@H]1CN2CC[C@H]1C[C@H]2[C@H](OC(=O)c1cccc([N+](=O)[O-])c1)c1ccnc2ccccc12 | > 10 µM | < 14.5 nM | 396 nM
COc1ccc(-c2c[n+](CC(=O)c3ccc(Cl)cc3)c3n2CCC3)cc1 | > 100 µM | 150 nM | 641 nM
CN(C)c1ccc(NC(=O)C2C3C=CC(O3)C2C(=O)O)cc1 (stereo unspecified) | 32.8 µM | 47.7 nM | 120 nM
O=S(=O)(c1ccc(Cl)cc1)N1CCN(C(=S)NCC2CCCO2)CC1 (stereo unspecified) | > 100 µM | 149 nM | 653 nM
COCC(=O)Oc1ccccc1-c1nc2cc(C)ccn2c1NC(C)(C)CC(C)(C)C | > 6.2 µM | < 9.15 nM | 799 nM
CCOC(=O)C1=C(N)N(c2cccc([N+](=O)[O-])c2)C2=C(C(=O)CC(C)(C)C2)C1c1ccc(Br)cc1 (stereo unspecified) | > 100 µM | 150 nM | 1260 nM
O=C1CC(C(=O)N2CCC(c3nc(-c4cccnc4)ncc3-c3ccccc3)CC2)c2ccccc21 (stereo unspecified) | > 100 µM | 150 nM | 459 nM
CC(CNC(=O)c1cn(C2CCCCC2)cc(C(=O)NC(C)(C)C)c1=O)c1ccccc1 (stereo unspecified) | > 10 µM | < 15 nM | 174 nM
CCOC(=O)C1=C(CC)NC2=C(C(=O)CC(C)(C)C2)C1c1ccccc1F (stereo unspecified) | > 100 µM | 151 nM | 459 nM
c1cc(-c2cccc3cccnc23)nc(N2CCN(CCN3CCCC3)CC2)c1 | 70.1 µM | 103 nM | 58.4 nM
COc1cc2nc(NCc3cccnc3)n3nc(-c4ccccc4)nc3c2cc1OC | > 100 µM | 148 nM | 182 nM
COC(=O)C1=C(C)N/C(=C\c2cc(C)n(-c3cc(C)ccc3C)c2C)C1=O | > 10 µM | 15.1 nM | 12.4 nM
CC(C)CN1C(=O)c2ccccc2C(C(=O)Nc2cc(F)ccc2F)C1c1cccs1 (stereo unspecified) | > 100 µM | 150 nM | 260 nM
COC(=O)c1c(-c2c(Cl)cccc2Cl)noc1NC(=O)NN1CCCCC1 | > 100 µM | 151 nM | 277 nM

Compound | CC50 [1] | EC50 (Plasmodium falciparum [2]) | EC50 (Plasmodium falciparum [3])
O=C(CN1CCN(C(=O)c2ccccc2)CC1)Nc1ccc(-c2nc3cc(NC(=O)CN4CCN(C(=O)c5ccccc5)CC4)ccc3o2)cc1 | > 100 µM | 146 nM | 235 nM
CC(C)CC(N)C(=O)N1CCn2c(nc(-c3ccccc3)c2Nc2ccc3c(c2)OCO3)C1 (stereo unspecified) | > 79.5 µM | 122 nM | 119 nM
O=C(C(Cc1ccc(O)cc1)c1ccccc1)N1CCC(n2c(Cc3ccc(F)cc3)nc3cccnc32)CC1 (stereo unspecified) | > 100 µM | 138 nM | 351 nM
CCOC(=O)CCC(=O)N(C)CCCNc1ccnc2cc(Cl)ccc12 | > 10 µM | < 15.6 nM | 673 nM
C=CC1CN2CCC1CC2[C@@H](OC(=O)c1ccc(C(C)(C)C)cc1)c1ccnc2ccc(OC)cc12 (stereo partly specified) | 72.5 µM | 103 nM | 26 nM
O=C1N(Cc2cc3ccccc3s2)CC2CN(Cc3ccsc3)CCN12 (stereo unspecified) | > 100 µM | 153 nM | 107 nM
COc1cc2c(-c3cc(Br)ccc3O)nc3c(c(Cc4ccccc4)nn3-c3ccccc3)c2cc1OC | > 100 µM | 145 nM | 146 nM
COc1ccc(C=Cc2ccc3ccccc3[n+]2C)cc1OC | > 100 µM | 138 nM | 441 nM
Cc1ccc(-n2c(-c3ccccc3)cc(C=NNC(=O)c3cccc(O)c3)c2-c2ccccc2)cc1 | > 100 µM | 139 nM | 150 nM
CN(CCCNc1ccnc2cc(Cl)ccc12)C(=O)c1ccc(-c2ccccc2)cc1 | 10.1 µM | < 15.6 nM | 326 nM
CC(=O)Nc1c(NCc2ccccc2)c2ccccc2sc1=O | > 100 µM | 154 nM | 505 nM
Cc1cc(Cl)c(S(=O)(=O)N2CCCC2)cc1OCC(=O)NC1CCCCC1 | > 100 µM | 141 nM | 95.6 nM
CSc1cccc(NC(=O)C2C3C=CC4(O3)C2C(=O)N(C2CC2)C4C(=O)NC2CCCCC2)c1 (stereo unspecified) | > 10 µM | < 14.5 nM | 1750 nM
CCN(CC)CCN1C(=O)c2ccccc2NC1c1ccc(Br)cc1 (stereo unspecified) | 47.8 µM | 67.1 nM | 218 nM
CCOC(=O)c1cnc2c3c(ccc2c1O)CCCC3 | > 100 µM | 137 nM | 133 nM
CCN(CC)CCN1C(=O)c2ccccc2NC1c1ccc(N(C)C)cc1 (stereo unspecified) | > 100 µM | 157 nM | 285 nM
OC(CNCc1ccccc1)Cn1c2ccc(Br)cc2c2cc(Br)ccc21 (stereo unspecified) | 9.3 µM | 13.5 nM | 312 nM
CCc1nc2nc(C)cc(Nc3ccc(C)c(F)c3)n2n1 | > 100 µM | 140 nM | 248 nM
O=C(CCc1ccccc1)NCCCCNc1ccnc2cc(Cl)ccc12 | > 10 µM | < 13.8 nM | 142 nM
Cc1cc(C)n(-c2cc(NN=Cc3cc(Br)ccc3O)nc(C)n2)n1 | > 100 µM | 154 nM | 237 nM
COc1ccccc1NC(=O)N(Cc1ccccc1)C(C)c1nc2ccccc2c(=O)n1-c1cc(C)ccc1OC (stereo unspecified) | > 10 µM | < 15.6 nM | 344 nM
